In patent US20240336608A1, “IL4I1 INHIBITORS AND METHODS OF USE” (Merck Sharp & Dohme LLC, priority 2023, published 2024):

What follows are molecules tested against T1, recombinant IL4I1 (Homo sapiens, UniProt Q96RQ9) (assay: IL4I1 Enzymatic Assay (Amplex Red/HRP coupled detection of H2O2, fluorescence)). Conditions: 1 nM recombinant IL4I1; four-hour pre-incubation with compound; 1 mM each Phe, Tyr, Trp; ten-point titration.
T1 construct: purchased R&D Systems 5684-AO-020
T1 sequence (Q96RQ9 22-567): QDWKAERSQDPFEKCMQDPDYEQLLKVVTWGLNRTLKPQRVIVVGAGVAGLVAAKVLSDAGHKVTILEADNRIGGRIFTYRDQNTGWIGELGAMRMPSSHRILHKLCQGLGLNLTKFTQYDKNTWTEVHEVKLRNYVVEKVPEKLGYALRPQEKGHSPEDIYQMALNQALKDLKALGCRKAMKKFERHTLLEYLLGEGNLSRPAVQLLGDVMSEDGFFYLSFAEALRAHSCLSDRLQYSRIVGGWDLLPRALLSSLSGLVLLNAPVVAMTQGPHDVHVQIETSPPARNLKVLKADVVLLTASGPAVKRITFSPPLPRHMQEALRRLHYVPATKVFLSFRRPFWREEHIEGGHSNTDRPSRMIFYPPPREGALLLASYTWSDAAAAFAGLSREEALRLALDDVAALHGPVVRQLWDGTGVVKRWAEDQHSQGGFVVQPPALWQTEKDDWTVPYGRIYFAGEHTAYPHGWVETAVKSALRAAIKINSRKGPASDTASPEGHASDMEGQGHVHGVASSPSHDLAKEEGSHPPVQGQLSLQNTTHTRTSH
Type: biochemical
Experimental: Interleukin 4 inducible protein 1 (IL4I1) is an L-amino oxidase that catalyzes the oxidation of aromatic residues (Phe, Trp and Tyr): L-amino acid+H2O+O2→2-oxo acid+NH3+H2O2. Equal molar of H2O2 and the corresponding alpha-ketoacid are produced when IL4I1 and substrate are added. In this assay, the hydrogen peroxide generated by IL4I1 is then detected through a coupled reaction with Amplex Red (10-acetyl-3,7-dihydroxyphenoxazine) and […] (HRP) to produce Resorufin product that could be detected in the form of fluorescence signals. The assessment of the inhibitory effect of small molecules (EC50) on IL4I1 is measured by the effectiveness of the compounds to inhibit the production of H202.
Using this assay, the potency (EC50) of each compound was determined from a ten-point (1:3 serial dilution) titration curve using the following outlined procedure. To each well of a black flat-bottom Greiner (Cat #781076) 384 well-plate, 125 nL of compound (0.5% DMSO in final assay volume of 25 μL) was dispensed, followed by the addition of 12.5 μL of 1× assay buffer (50 mM Hepes 7.0 and 0.005% Tween20 (Sigma, Cat #P8341; low peroxide grade)) containing 2 nM of recombinant IL4I1 (R&D Systems, Cat #5684-AO-020). Plates were placed in an ambient temperature humidified chamber for a four-hour pre-incubation with compound. Subsequently, each reaction was initiated by the addition of 12.5 μL 1× assay buffer containing 2 mM of each aromatic amino acids (Phe/Tyr/Trp), 0.1 mM Amplex Red and 2 U/mL of HRP. The final reaction in each well of 25 μL consists of 1 nM of IL4I1, 1 mM of each residue (Phe, Tyr and Trp), 0.05 mM Amplex Red and 1 U/mL of HRP. It should be noted that the concentrations of Amplex Red and HRP used here are in excess such that the conversion of H2O2 to Resorufin product occurs instantaneously and non-rate limiting. Reactions were allowed to proceed for 120 minutes followed by fluorescence readout on a Spectramax with the following set parameters: 544 nm excitation/590 nm emission, 570 nm cutoff (EnVision is an alternative reader). Dose-response curves were generated by plotting percent effect (% inhibition; Y-axis) vs. Log10 compound concentrations (X-axis). EC50 values were calculated using a non-linear regression, four-parameters sigmoidal dose-response model and are shown in Table 16.

EC50 [nM]	SMILES
5	O=C(NCc1nnc(-c2ccccc2)s1)c1cn([C@@H]2C[C@H]2CO)nn1 (single isomer, unassigned) [Example 141, Trans-1-(2-(hydroxymethyl)cyclopropyl)-N-((5-phenyl-1,3,4-thiadiazol-2-yl)methyl)-1H-1,2,3-triazole-4-carboxamide]
33	O=C(NCc1nnc(-c2ccccc2)s1)c1cn([C@@H]2C[C@H]2CO)nn1 (single isomer, unassigned) [Example 142, Trans-1-(2-(hydroxymethyl)cyclopropyl)-N-((5-phenyl-1,3,4-thiadiazol-2-yl)methyl)-1H-1,2,3-triazole-4-carboxamide]
179	O=C(NCc1nnc(-c2ccccc2)s1)c1cn(C2C[C@@H]2C(F)F)nn1 (single isomer, unassigned) [Example 143, Trans-1-(-2-(difluoromethyl)cyclopropyl]-N-[(5-phenyl-1,3,4-thiadiazol-2-yl)methyl]-1H-1,2,3-triazole-4-carboxamide]
383	O=C(NCc1nnc(-c2ccccc2)s1)c1cn(C2C[C@@H]2C(F)F)nn1 (single isomer, unassigned) [Example 144, Trans-1-(-2-(difluoromethyl)cyclopropyl]-N-[(5-phenyl-1,3,4-thiadiazol-2-yl)methyl]-1H-1,2,3-triazole-4-carboxamide]

Second part, the molecule before the results:

SMILES	EC50 [nM]
CC(CC(F)(F)F)n1cc(C(=O)NCc2nnc(-c3ccccc3)s2)nn1 (single isomer, unassigned) [Example 63, N-((5-phenyl-1,3,4-thiadiazol-2-yl)methyl)-1-(4,4,4-trifluorobutan-2-yl)-1H-1,2,3-triazole-4-carboxamide]	18
CC(CC(F)(F)F)n1cc(C(=O)NCc2nnc(-c3ccccc3)s2)nn1 (single isomer, unassigned) [Example 64, N-((5-phenyl-1,3,4-thiadiazol-2-yl)methyl)-1-(4,4,4-trifluorobutan-2-yl)-1H-1,2,3-triazole-4-carboxamide]	93
O=C(NCc1nnc(-c2ccccc2)s1)c1cn(C2CC2(F)F)nn1 (single isomer, unassigned) [Example 130, 1-(2,2-difluorocyclopropyl)-N-((5-phenyl-1,3,4-thiadiazol-2-yl)methyl)-1H-1,2,3-triazole-4-carboxamide]	5
O=C(NCc1nnc(-c2ccccc2)s1)c1cn(C2CC2(F)F)nn1 (single isomer, unassigned) [Example 131, 1-(2,2-difluorocyclopropyl)-N-((5-phenyl-1,3,4-thiadiazol-2-yl)methyl)-1H-1,2,3-triazole-4-carboxamide]	54
CC1CC1n1cc(C(=O)NCc2nnc(-c3ccccc3)s2)nn1 (single isomer, unassigned) [Example 132, Cis-1-(2-methylcyclopropyl)-N-((5-phenyl-1,3,4-thiadiazol-2-yl)methyl)-1H-1,2,3-triazole-4-carboxamide]	7
CC1CC1n1cc(C(=O)NCc2nnc(-c3ccccc3)s2)nn1 (single isomer, unassigned) [Example 133, Cis-1-(2-methylcyclopropyl)-N-((5-phenyl-1,3,4-thiadiazol-2-yl)methyl)-1H-1,2,3-triazole-4-carboxamide]	92
O=C(NCc1nnc(-c2ccccc2)s1)c1cn(CC(O)C(F)F)nn1 (single isomer, unassigned) [Example 138, 1-(3,3-difluoro-2-hydroxypropyl)-N-((5-phenyl-1,3,4-thiadiazol-2-yl)methyl)-1H-1,2,3-triazole-4-carboxamide]	25
O=C(NCc1nnc(-c2ccccc2)s1)c1cn(CC(O)C(F)F)nn1 (single isomer, unassigned) [Example 139, 1-(3,3-difluoro-2-hydroxypropyl)-N-((5-phenyl-1,3,4-thiadiazol-2-yl)methyl)-1H-1,2,3-triazole-4-carboxamide]	123
